This is an account of results in patent US7101908B2, “Bicyclic carbohydrate compounds useful in the treatment of infections caused by herpesviridae” (Kemin Pharma Europe B.V.B.A., priority 2001, dated 2006).

The test system of one data set is CMV Davis strain. Briefly: Plaque reduction assay in HEL cells, CMV Davis strain. The data set is classed as cell-based, human cytomegalovirus. The conditions noted are these: human embryonic lung fibroblast (HEL) cells; for IC50: Human betaherpesvirus 5, HEL, 168 h, plaques counted on day 7, read-out: IC50 CMV David Strain (inhibitory concentration required to reduce virus plaque formation by 50%). On the procedure: (§1) The compounds were screened against various pathogenic viruses and more specific the human cytomegalovirus (CMV). […] After 2 hours of incubation at 37° C., the infected cells were replenished with 0.1 ml of medium containing serial dilutions of the test compound. On day 7 the plaques were counted microscopically after staining the cells with Giemsa's solution. The minimum antiviral concentration was expressed as the dose required to inhibit virus-induced plaque formation by 50%.

Another data set relates to CMV AD-169 strain. Description: Plaque reduction assay in HEL cells, CMV AD-169 strain. The data set is classed as cell-based, human cytomegalovirus. The conditions noted are these: human embryonic lung fibroblast (HEL) cells; for IC50: Human betaherpesvirus 5, AD169, HEL, 168 h, plaques counted on day 7, read-out: IC50 CMV AD-169 Strain (inhibitory concentration required to reduce virus plaque formation by 50%); for IC50 CMV AD-169 Strain (inhibitory concentration required to reduce virus plaque formation by 50%): plaques counted on day 7. On the procedure:
as §1
Background: Plaques are areas of infected cells; plaque reduction assays count them against a control.

For data set [1] the following is noted: intravenous ganciclovir; people; cited from earlier work.

≈ marks a conversion by molar mass, not a printed value.

`CO[C@@H]1[C@@H](OC)[C@H](Cc2ccccc2)O[C@@H]2CO[C@@H](c3ccccc3)O[C@@H]12` [Compound A2]: the IC50 in the data set with CMV Davis strain came out at 20 µg/mL (≈ 54 µM); in the data set with CMV AD-169 strain, 5 µg/mL (≈ 13.5 µM).
Take `C#CCO[C@@H]1[C@@H](OCC#C)[C@H](Cc2ccccc2)O[C@@H]2CO[C@@H](c3ccccc3)O[C@@H]12` [Compound A5]: the melting point (in general, the temperature, or range, at which the solid turns liquid) was 81 to 83 °C. Also, the IC50 in the data set on CMV Davis strain was 0.5 µg/mL (≈ 1.19 µM). For the same compound, the IC50 in the data set on CMV AD-169 strain came to 0.5 µg/mL (≈ 1.19 µM).
In turn, `CCO[C@@H]1[C@@H](OCC)[C@H](Cc2ccccc2)O[C@@H]2CO[C@@H](c3ccccc3)O[C@@H]12` [Compound A3] showed a melting point of 87 to 89 °C. Also, the IC50 in the data set on CMV Davis strain came out at 3.2 µg/mL (≈ 8.03 µM). Further, in the data set with CMV Davis strain (plaques counted on day 7), the “IC50 CMV David Strain (inhibitory concentration required to reduce virus plaque formation by 50%)” value turned out to be 2.8 µg/mL (≈ 7.03 µM). For the same compound, in the data set on CMV AD-169 strain, the IC50 was 2.5 µg/mL (≈ 6.27 µM) and the “IC50 CMV AD-169 Strain (inhibitory concentration required to reduce virus plaque formation by 50%)” value stood at 2.7 µg/mL (≈ 6.78 µM).
With `CO[C@@H]1[C@@H](OC)[C@H](c2ccccc2)O[C@@H]2CO[C@@H](c3ccc(-c4ccccc4)cc3)O[C@@H]12` [Compound A7], the melting point was 111 to 112 °C. In the data set on CMV Davis strain, the IC50 turned out to be 0.6 µg/mL (≈ 1.39 µM). Further, in the data set on CMV AD-169 strain, the IC50 was determined as 0.8 µg/mL (≈ 1.85 µM).
In the same order, the values of `CO[C@@H]1[C@@H](OC)[C@H](c2ccccc2)O[C@@H]2CO[C@@H](c3ccc4ccccc4c3)O[C@@H]12` [Compound A6] are 135 °C, 0.8 µg/mL (≈ 1.97 µM) and 0.47 µg/mL (≈ 1.16 µM).
Consider `Nc1nc(O)c2ncn(COC(CO)CO)c2n1` [Ganciclovir, reference compound], for which the “IV recipients who have to stop treatment because of side effects” value in data set [1] is on record as “More than 10%”. Further, the IC50 in the data set with CMV Davis strain was found to be 0.5 µg/mL (≈ 1.96 µM). In addition, in the data set on CMV AD-169 strain, the IC50 was 1.3 µg/mL (≈ 5.09 µM) and the “IC50 CMV AD-169 Strain (inhibitory concentration required to reduce virus plaque formation by 50%)” value turned out to be 2.5 µg/mL (≈ 9.79 µM).
Compound `CO[C@@H]1[C@@H](OC)[C@H](c2ccccc2)O[C@@H]2CO[C@@H](c3ccccc3)O[C@@H]12` [Compound A1] displayed a melting point of 97 to 98 °C. Besides, in the data set with CMV Davis strain, the IC50 was determined as 2 µg/mL (≈ 5.61 µM). In addition, the IC50 with CMV AD-169 strain amounted to 2.7 µg/mL (≈ 7.58 µM).
